{"source": "patent US20140309295A1", "about": "“ANTIEPILEPTIC, HYPOCHOLESTEROLEMIC AND NEUROPROTECTIVE COMPOUND” (NEURON BIOPHARMA, S.A., priority 2009, published 2014)", "key": {"[1]": {"tested_on": "human neuroblastoma SK-N-MC cells", "assay": "Inhibition of camptothecin-induced apoptosis by flow cytometry (sub-G1)", "assay_type": "cell-based", "conditions": "50 μM Z-VAD-fmk; 50 μM camptothecin", "experimental": "The assay was performed on human neuroblastoma SK-N-MC cells in culture from the American Type Culture Collection (ATCC), in all cases strict rules of sterility were followed and the manipulation was performed in class II biological safety cabinets following European standard EN 12469. The cells were maintained in the following culture medium: Minimum Essential Medium Eagle (MEM) supplemented with 1 mM sodium pyruvate, 2 mM L-glutamine, 0.1 mM non-essential amino acids, 0.05 mg/ml gentamicin and 10% fetal bovine serum.\nThe inhibition caused by compound NST0037 against apoptosis (programmed cell death) caused by treatment with camptothecin which inhibits the enzyme Topoisomerase I, which prevents DNA duplication and triggers apoptotic cell death, was analyzed. These cells, not exceeding 15 passages, were seeded on 6-well plates treated for adherent cells with a cell concentration of 8×10^5 cells/well and 7×10^5 cells/well for the assay with pretreatment; 2 wells of the plate were seeded for each condition of the assay.\nAfter 24 hours of cell incubation at 37° C. and 5% CO2, the cell treatments were performed with 2 ml of total volume for the following conditions: • Control: culture medium (medium) • Camptothecin: medium plus camptothecin 50 μM. • Camptothecin plus Z-VAD-fmk: medium plus 50 μM camptothecin plus 50 μM Z-VAD-fmk, as positive inhibition control. • Camptothecin plus NST0037: medium plus 50 μM camptothecin plus NST0037 at 10, 40 or 100 μM.\nIn the assay with pretreatment, the cells were previously treated with 40 μM of NST0037, 100 μM of mevalonate or both together for 24 hours and then they were treated with 50 μM camptothecin, the rest of the procedure was similar to the assay without pretreatment.\nThe cells were incubated (at 37° C. and 5% CO2) with these treatments for 6 hours, after which time they were collected along with their culture medium and centrifuged at 300×g for 5 minutes. The medium was removed, a washing was performed with PBS and the cells were fixed for 2 minutes with 500 μl of 70% ethanol at −20° C. Once fixed, they were centrifuged at 400×g for 5 minutes, washed with PBS and 0.05 mg/ml propidium iodide, diluted in cycling buffer (0.1% sodium citrate, 0.3% Nonidet P-40 and 0.02 mg/ml RNase) were added and they were incubated for 1 hour at 37° C. After this time they were analyzed by flow cytometry, comparing the fluorescence of propidium iodide against the amount of DNA. The percentage of apoptosis was measured on the sub-G1 region of each of the conditions."}, "caspase 3/7": {"tested_on": "caspase 3/7", "assay": "Inhibition of camptothecin-induced activation of caspase 3/7 in SK-N-MC cells", "assay_type": "cell-based, human", "conditions": "50 μM Z-VAD-fmk; 50 μM CPT", "experimental": "The assay was performed on human neuroblastoma SK-N-MC cells in culture from the American Type Culture Collection (ATCC), in all cases strict rules of sterility were followed and the manipulation was performed in class II biological safety cabinets following European standard EN 12469. The cells were maintained in the following culture medium: Minimum Essential Medium Eagle (MEM) supplemented with 1 mM sodium pyruvate, 2 mM L-glutamine, 0.1 mM non-essential amino acids, 0.05 mg/ml gentamicin and 10% fetal bovine serum. The induction of apoptosis on the cells in culture was performed by means of incubation with camptothecin (CPT), which triggers cell apoptosis activation. The apoptosis was determined by means of the measurement of the activation of effector caspases, caspase 3 or caspase 7, for which a kit for the fluorometric detection of active caspase 3/7 (Apo-ONE® Homogeneous Caspase-3/7, Promega) was used. The active caspase 3 or 7 of the cells cause the rupture of a substrate, which leads to fluorescence emission, which is read by means of a fluorometer. The effect of the pretreatment of compound NST0037 at 10 and 40 μM on the activation of caspase 3/7 caused by 50 μM of camptothecin (CPT) in the SK-N-MC cells was thus analyzed. These cells, not exceeding 15 passages, were seeded on 96-well plates treated for adherent cells with a cell concentration of 5×10^4 cells/well, 3 wells of the plate were seeded for each condition of the assay. After 24 hours of cell incubation at 37° C. and 5% CO2, the pretreatment with NST0037 at 10 and 40 μM was performed. […] On the following day, fluorescence was measured (499/521 nm, […])."}, "adult zebrafish": {"tested_on": "adult zebrafish", "assay": "Lethality by constant exposure in water (4 days) in adult zebrafish (OECD 203)", "assay_type": "in vivo", "conditions": "for histopathology: ovary / Mortality (dead animals/total): 4 days", "experimental": "The object of this assay is to determine the acute lethal toxicity of a substance on freshwater fish. Acute toxicity is the distinguishable adverse effect induced in an organism as a result of the exposure to a given substance for a short time period (days).\nThe deaths of the animals under study during the entire time of the assay were recorded as a toxicity parameter.\nTo that end, the fish that survived the treatment were sacrificed at 4 days post-treatment (previously anesthetized) and the samples (whole fish) were included in paraffin. The hematoxylin-eosin staining was subsequently performed in order to conduct the histopathological studies, obtaining a minimum of 6 longitudinal sections per animal, for the purpose of collecting different study areas of the same organ. The following organs were studied: brain, kidney, pancreas, intestine, eye, gills, ovary, testicle, muscle and liver."}, "zebrafish embryo": {"tested_on": "zebrafish embryo", "assay": "Biosafety in zebrafish embryo (OECD C15, semi-static, 9 days)", "assay_type": "in vivo, Danio rerio", "experimental": "The fertilized eggs were obtained by natural mating of the zebrafish (Danio rerio, AB strain). A total of 8-10 pairs were used for each cross and a total of 200-250 eggs were generated on average per pair.\nTo assure exposure in the earliest stages of development, the eggs were quickly transferred (a minimum of 50 per condition) to another Petri dish with solutions of the compounds to be tested. […] Each experiment was performed in triplicate.\nThe studies were conducted in a total of 9 days post-fertilization, in which the treatment was renewed every day, thus conducting a semi-static assay.\nThe results at the end of the experiment allowed collecting the percentage of healthy larvae which reach the end of the experiment, defined as the number of live larvae and without symptoms of external physiopathological anomalies (morphological and/or behavioral), this being a parameter determining the biosafety of a substance under study and is complementary to the survival rates and to the LD50.\nThe anomalies recorded in the study are described below: • Intracranial thrombosis: a clot inside the blood vessel, in this case of any cerebral vessel. • Cardiac thrombosis: occurs in a cardiac vessel. • Cardiac edema (or hydrops): accumulation of fluid in the intercellular tissue space and also in the cavities of the organism. In the case of the heart, it causes the accumulation of fluid in the pericardial sac. • Malformation: a noticeable difference in the shape of the body or part of the body, or organ of the body (internal or external) compared with the average shape of the part in question.\nThe cardiac rhythm of the zebrafish embryos-larva was determined by means of visual analysis in stereomicroscopy, determining the heartbeat with the aid of a manual counter for a period of one minute."}, "zebrafish larvae": {"tested_on": "zebrafish larvae", "assay": "Acute toxicity assay in zebrafish larvae (24 hours)", "assay_type": "in vivo, Danio rerio", "conditions": "for Mortality (dead larvae/total): 1 day", "experimental": "To evaluate the biosafety of compound NST0037, its toxicological effects on the zebrafish larvae model were analyzed by means of determining the safety parameters of the OECD C15 protocol.\nThe fertilized eggs were obtained by natural mating of the zebrafish (Danio rerio, AB strain). A total of 8-10 pairs were used for each cross and a total of 200-250 eggs were generated on average per pair. The eggs were collected immediately after spawning and were washed with dilution water (CaCl2.2H2O2 0.29 g/L, MgSO4.7H2O2 0.12 g/L, NaHCO3 0.065 g/L, KCl 0.006 g/L), the pH being adjusted to 7.8±0.2, in accordance with EC Regulation 440/2008, method C.1, and were deposited in a Petri dish.\nThe embryos were developed normally until 96 hours post-fertilization in their growth medium. […] […]. Each experiment was performed in triplicate.\nThe studies were conducted for 24 hours of treatment, thus performing an acute toxicity assay. […].\nAfter the time of exposure of the substances under study, the record of the mortality of the larvae was determined. […].\n[…]. The percentage of healthy larvae was defined as the number of live larvae without symptoms of external physiopathological anomalies (morphological and/or behavioral), the latter being a parameter determining the biosafety of a substance under study and is complementary to the survival rates and to LD50. […].\nThe anomalies recorded in the study are described below: • Thrombosis in the yolk sac: it is a clot inside a blood vessel, in this case of any vessel irrigating the yolk. • Cardiac thrombosis: occurs in a cardiac vessel. • Cardiac edema (or hydrops): accumulation of fluid in the intercellular tissue space and also in the cavities of the organism. In the case of the heart, it causes the accumulation of fluid in the pericardial sac."}}, "note": "Peptide text beside a SMILES is read from it. * marks the point of attachment. Cbz = O=C(OCc1ccccc1)*; CH2F = FC*", "data": [{"smiles": "COC(=O)C[C@H](NC(=O)[C@H](C)NC(=O)[C@@H](NC(=O)OCc1ccccc1)C(C)C)C(=O)CF", "note": "[Z-VAD-fmk, reference compound] (Cbz-Val-Ala-Asp(OMe)-CH2F)", "values": [{"measurement": "inhibition of apoptosis caused by camptothecin (positive inhibition control)", "setting": "[1]", "value": "specifically inhibited the apoptosis caused by camptothecin"}, {"measurement": "inhibition of activation of caspase 3/7 (inhibition control)", "setting": "caspase 3/7", "value": "completely inhibited the activation of caspase 3/7"}]}, {"smiles": "CCC(C)(C)C(=O)O[C@H]1C[C@@H](C)C=C2C=C[C@H](C)[C@H](CC[C@@H]3C[C@@H](O)CC(=O)O3)[C@H]21", "note": "[simvastatin, reference compound]", "values": [{"measurement": "histopathology: ovary", "setting": "adult zebrafish; 30 mg/kg", "value": "also presented histopathological damage in the ovary"}, {"measurement": "histopathology: ovary", "setting": "adult zebrafish; 100 mg/Kg", "value": "presented ovarian damage"}, {"measurement": "Mortality (dead animals/total)", "setting": "adult zebrafish; Dose 1 mg/kg", "value": "0/7"}, {"measurement": "Mortality (dead animals/total)", "setting": "adult zebrafish; Dose 3.2 mg/kg", "value": "0/7"}, {"measurement": "Mortality (dead animals/total)", "setting": "adult zebrafish; Dose 10 mg/kg", "value": "0/7"}, {"measurement": "Mortality (dead animals/total)", "setting": "adult zebrafish; Dose 32 mg/kg", "value": "0/7"}, {"measurement": "Mortality (dead animals/total)", "setting": "adult zebrafish; Dose 100 mg/kg", "value": "6/7"}, {"measurement": "percentage of mortality", "setting": "adult zebrafish; day 4 post-treatment (100 mg/kg group)", "value": 86, "unit": "%"}, {"measurement": "percentage of larvae with malformations or anomalous appearance", "setting": "zebrafish embryo; 0.2 mg/L", "value": "significant percentage of anomalies or toxicological problems"}, {"measurement": "survival rate of embryos-larvae", "setting": "zebrafish embryo; high dose (2 mg/L, FIG. 24)", "value": "more toxic, since the reduction of the survival rate started earlier in time"}, {"measurement": "reduction of the cardiac rhythm vs controls", "setting": "zebrafish embryo; increasing doses up to 2 mg/L, 72 hours post-treatment", "value": "statistically significant reduction with respect to the controls after the dose of 0.06"}, {"measurement": "survival rate of embryos-larvae vs controls", "setting": "zebrafish embryo; lower dose (FIG. 25: NST0037 0.2 mg/L)", "value": "caused a significant reduction of the survival rate"}, {"measurement": "percentage of larvae with toxicological symptomatology (anomalous appearance)", "setting": "zebrafish larvae; 24 hours exposure", "value": "induced a larger percentage of larvae with toxicological symptomatology than compound NST0037"}, {"measurement": "Mortality (dead larvae/total)", "setting": "zebrafish larvae; Dose 10 mg/Kg", "value": "0/30"}, {"measurement": "Mortality (dead larvae/total)", "setting": "zebrafish larvae; Dose 30 mg/Kg", "value": "0/30"}, {"measurement": "Mortality (dead larvae/total)", "setting": "zebrafish larvae; Dose 100 mg/Kg", "value": "0/30"}, {"measurement": "Mortality (dead larvae/total)", "setting": "zebrafish larvae; Dose 300 mg/Kg", "value": "0/30"}, {"measurement": "Mortality (dead larvae/total)", "setting": "zebrafish larvae; Dose 1000 mg/Kg", "value": "0/30"}, {"measurement": "percentage of healthy larvae", "setting": "zebrafish larvae; highest study dose (1000 mg/Kg), 24 hours", "value": "53.3±8.8", "unit": "%"}]}]}
